Patent publication US20240376057A1, “2,4-DIOXO-1,2,3,4-TETRAHYDROPYRIMIDINE DERIVATIVES AND THEIR USE IN THE TREATMENT OF TUMORS” (ISTITUTO PASTEUR ITALIA, priority 2021, published 2024)

How the values were obtained:
[1] = test system: Med1-MB cells; assay: Med1-MB tumor cell proliferation, Trypan Blue exclusion count; assay type: cell-based, mouse; set-up: key to Growth Inhibition (relative inhibitory activity): *** strong; ** middle; * weak; settings: for Growth Inhibition (relative inhibitory activity): 72 h treatment
Procedure: Med1-MB cells (a mouse medulloblastoma cell line kindly provided by Dr Yoon-Jae Cho, Stanford, CA USA and disclosed in Hayden Gephart et al. Journal of Neuro-Oncology (2013) volume 115, pages 161-168) were maintained in DMEM supplemented with 10% FBS and 100 units of penicillin/streptomycin.
Med1-MB cells were cultured in Dulbecco's modified Eagle medium (DMEM) supplemented with 10% FBS, 1 mM penicillin-streptomycin and 1 mM glutamine in a humidified incubator at 37° C. and 5% CO2. […] After 72 hours, cells were trypsinized and counted by trypan blue exclusion method.
To evaluate the effect on tumor growth of compound IPI/01.LF, and derivatives, 1×10^4 Med1-MB cells were seeded in 12-well plate and incubated overnight at 37° C. in a humidified incubator. After 24 h, cells were treated with increasing concentrations of compounds for 72 h. At the end of the experiment, cell proliferation was assayed by Trypan Blue exclusion method. IC50 values were determined by generating a dose-response curves by non-linear regression. Data are expressed as the mean±SD of three independent experiments, each performed in triplicate.

[2] = test system: LDHA enzyme; assay: LDHA enzymatic activity assay: rate of NADH consumption after pyruvate addition, spectrophotometry at 340 nm, in Med1-MB cell supernatant; assay type: biochemical, mouse; set-up: key to LDH Inhibition (relative inhibitory activity): *** strong; ** middle; * weak; settings: dose of 100 μM
Procedure: To evaluate whether the observed anti-proliferative effect of IPI/01.LF and derivatives was a specific consequence of the inhibitory activity on the LDHA enzyme, the inventor performed enzymatic activity assays measuring the rate of NADH consumption following the addition of pyruvate by spectrophotometry at […], as previously described [Miskimins W K, Ahn H J, Kim J Y, Ryu S, Jung Y S, Choi J Y. Synergistic anti-cancer effect of phenformin and oxamate. PLoS One. 2014; 9(1):e85576.].
1×10^5 Med1-MB cells were harvested, suspended in 0.1M KH2PO4 (pH 7.2), 2 mM EDTA and 1 mM dithiothreitol (DTT), sonicated in 300 μL assay buffer (50 mmol/L potassium phosphate, pH 7.4), and centrifuged at 10,000 g for 10 minutes at 4° C. The supernatant was added to 50 mM potassium phosphate (pH 7.4), 2 mM pyruvate, and 20 µM NADH. Absorbance was measured over 10 minutes at 340 nm using a spectrophotometer.

[3] = test system: Panc1 cells; assay: Panc1 pancreatic tumor cell proliferation, Trypan Blue exclusion; assay type: cell-based, human
From the text: The inventor tested compound #1-IPI/01.LF on the proliferation of human pancreatic ductal adenocarcinoma (PDAC) Panc1 cells (American Tissue Cell Culture (ATCC, Manassas, VA, USA); product code: ATCC® CRL-1469™) a human tumor cell line showing a high glycolytic rate (Liu L, Gong L, Zhang Y, Li N. Glycolysis in Panc-1 human pancreatic cancer cells is inhibited by everolimus Experimental and therapeutic medicine (2013) 5: 338-342).
PANC-1 cells were maintained in DMEM supplemented with 10% FBS and 100 units of penicillin/streptomycin. After 72 h, cell proliferation was assayed by Trypan Blue exclusion method. IC50 value was determined by generating a dose-response curves by non-linear regression. Data are expressed as the mean±SD of three independent experiments, each performed in triplicate.

[4] = test system: Panc1 tumor xenograft; assay: Panc1 luciferase xenograft in immunodeficient nude (nu/nu) mice: caliper tumor volume, luminescence, body weight; assay type: in vivo, mouse; settings: for tumor growth in treated mice: 20 mg/Kg in corn oil, intraperitoneally every two days, vs vehicle
Procedure: To evaluate the in vivo therapeutic effects of compound IPI/01.LF studies on immunodeficient nude (nu/nu) mouse models xenografted with the human pancreatic tumor cells Panc1 were performed.
Panc1 cells were stably transduced with 5 MOI of a lentivirus expressing the luciferase gene (pLenti CMV Puro LUC (w168-1)). The lentiviral vector was purchased from Addgene, Watertown, MA 02472 USA (plasmid #17477); Campeau E, et al A versatile viral system for expression and depletion of proteins in mammalian cells PLoS One (2009) 4(8):e6529.
Stably transduced Panc1 cells were subcutaneously implanted in immunocompromised Balb/C nude athymic mice. When the tumors reached the volume of 200 mm^3, mice were treated with either 20 mg/kg of compound IPI/01.LF dissolved in corn oil or with corn oil (vehicle) alone and injected intraperitoneally every two days. Tumor growth was monitored with a caliper every other day. Data are expressed as the mean±SD of three independent experiments, each performed in triplicate.
Since the grafted Panc1 tumor cells express the ectopic luciferase reporter gene, tumor luminescence was used to monitor the tumor growth. Luminescence was measured using IVIS Lumina III In Vivo Imaging System (PerkinElmer).
Mice were intraperitoneally injected with luciferin (RediJect D-Luciferin Bioluminescent Substrate, PerkinElmer) and analyzed by photon emission (bioluminescence).
L of luciferin (15 mg/mL stock)/gram of mouse body weight were injected in the lower left abdominal quadrant of xenografted Balb/C mice with a 25 gauge needle. After 10 minutes, animals were anesthetized with a mixture of oxygen gas and vaporized isoflurane. Once the animals were fully anesthetized, they were positioned within the animal imaging cassette for image acquisition. Data were analyzed utilizing the LivingImage software. Image acquisition was performed at the beginning (T=0) and at the end (T=17) of the experiment and body weights (g) of mice at time of sacrifice were determined.

O=C(Nc1ccccc1)c1c[nH]c(=O)n(Cc2ccccc2F)c1=O [#1, 2,4-dioxo-N-phenyl-3-(2-fluorobenzyl)-1,2,3,4-tetrahydropyrimidine-5-carboxamide]
Growth Inhibition (relative inhibitory activity) [1]: ***
IC50 ([1]; Mus musculus, 72 h, non-linear regression): ~29 µM
values times lower than those obtained with oxamate ([1]; vs oxamate): approximately 700 times
LDH Inhibition (relative inhibitory activity) [2]: ***
inhibitory effect on LDHA enzymatic activity [2]: marked inhibitory effect
IC50 ([3]; Homo sapiens, PANC-1, Panc1 cells, 72 h, non-linear regression): ~23 µM
IC50 range, cell proliferation ([3]; Panc1 cells): within the micromolar range
concentration times lower than oxamate for comparable ability to reduce tumor growth ([3]; in vitro, vs oxamate): > 700 times
tumor growth in treated mice [4]: did not grow at all
tumor growth in treated mice ([4]; listed as IPI/01.LF): significantly lower
weight of mice ([4]; 20 mg/Kg, T=0 to T=17): unchanged
tumor luminescent light signal over time ([4]; 20 mg/Kg, T=0 vs T=17 days, IVIS Lumina III): significant regression over time
tumor mass smaller in treated mice compared to controls at end of experiment ([4]; 20 mg/Kg, end of experiment): 2.5 fold
mean volume of tumors at end of treatment compared to controls ([4]; 20 mg/kg, end of treatment): significantly reduced

O=C(Nc1cccc(Cl)c1)c1c[nH]c(=O)n(Cc2ccccc2)c1=O [#2, 2,4-Dioxo-3-benzyl-N-(3-chlorophenyl)-1,2,3,4-tetrahydropyrimidine-5-carboxamide]
Growth Inhibition (relative inhibitory activity) [1]: *
LDH Inhibition (relative inhibitory activity) [2]: *

O=C(Nc1ccccc1F)c1c[nH]c(=O)n(Cc2ccc(F)cc2)c1=O [#3, 2,4-Dioxo-3-(4-fluorobenzyl)-N-(2-fluorophenyl)-1,2,3,4-tetrahydropyrimidine-5-carboxamide]
Growth Inhibition (relative inhibitory activity) [1]: **
LDH Inhibition (relative inhibitory activity) [2]: **

COc1ccc(Cn2c(=O)[nH]cc(C(=O)Nc3ccccc3Cl)c2=O)cc1 [#7, 2,4-Dioxo-3-(4-methoxybenzyl)-N-(2-chlorophenyl)-1,2,3,4-tetrahydropyrimidine-5-carboxamide]
Growth Inhibition (relative inhibitory activity) [1]: ***
LDH Inhibition (relative inhibitory activity) [2]: ***

NC(=O)c1ccc(NC(=O)c2c[nH]c(=O)n(Cc3ccccc3)c2=O)cc1 [#6, 2,4-Dioxo-3-benzyl-N-(4-carboxamidophenyl)-1,2,3,4-tetrahydropyrimidine-5-carboxamide]
Growth Inhibition (relative inhibitory activity) [1]: ***
LDH Inhibition (relative inhibitory activity) [2]: ***

O=C(Nc1ccccc1Cl)c1c[nH]c(=O)n(Cc2ccccc2)c1=O [#4, 2,4-Dioxo-3-benzyl-N-(2-chlorophenyl)-1,2,3,4-tetrahydropyrimidine-5-carboxamide]
Growth Inhibition (relative inhibitory activity) [1]: ***
LDH Inhibition (relative inhibitory activity) [2]: ***

NC(=O)C(=O)O [oxamate, reference compound]
concentration lowering in vitro proliferation ([1]; 72 h): > 20 mM
